# According to patent US20170020909A1, “METHODS OF TREATING GLAUCOMA USING AMP-ACTIVATED PROTEIN KINASE (AMPK) ACTIVATORS” (Massachusetts Eye and Ear Infirmary, priority 2014, published 2017):
# “Also recorded” adds a separate entry of the source.
# Tests used:
# [1] = tested on: primary cultured human TM cells; assay: Phalloidin (F-actin) immunofluorescent staining and morphology of primary cultured human TM cells; type: cell-based
# Protocol: FIG. 6. […] Human TM cells were plated on 8-well slides, treated as in FIG. 3, and then stained with phalloidin (F-actin) antibody. Nuclei were stained with DAPI. Representative immunofluorescent images shown above (n=3). Scale bar, 50 μm. Primary human trabecular meshwork (TM) cells were isolated, in accordance with the Declaration of Helsinki, and maintained in culture as described previously.^63 Independent primary human TM cell lines were generated from donors ranging in age from 35 to 72 years and no known history of ocular disease. Cell cultures were maintained, unless otherwise stated, in Dulbecco's modified eagle medium (Life Technologies, Grand Island, N.Y.) containing 20% fetal bovine serum, 1% L-glutamine (2 mM), and gentamicin (0.1 mg/ml) at 37° C. in a 10% CO2 atmosphere. Only TM cells from third through fifth passage were used. All experiments were performed using at least three different primary human TM cell lines. TM cells in 8 well-slides were fixed for 30 minutes with 4% paraformaldehyde in PBS (pH 7.4) at 4° C., then washed in PBS for 10 minutes twice at RT. Cells were permeabilized with 0.2% Triton-100 in PBS for 5 min and then washed in PBS and blocked in 3% bovine serum albumin (BSA) in PBS for 1 hr at RT. […] Nuclei were stained with TO-DAPI (Invitrogen), and labeled tissues were analyzed by fluorescent light microscopy using a Zeiss Observer3.1.
# laminin = assay: Immunoblot of laminin in conditioned media of human TM cells; type: cell-based; conditions: 24 hours
# Protocol: FIGS. 5A-E. AICAR suppresses ECM proteins in primary human TM cells under basal and TGF-β2 stimulatory conditions. (A) Representative immunoblots of ECM proteins from conditioned media (CM) of human TM cells treated for 24 hours with PBS vehicle or 0.5 mM AICAR and (B) integrated band intensities calculated from those immunoblots. (C) Representative immunoblots of ECM proteins from CM of human TM cells under stimulation with 2.5 ng/mL TGF-β2. Cells were pre-incubated for 1 hour with PBS or 0.5 mM AICAR prior to full 24-hour treatment. (D) Mean integrated band intensities. Data in panels B and D are expressed as mean±SEM (*p<0.05 vs. PBS vehicle by student t-test; n=5-7). (E) Representative 10% acrylamide gels stained with Coomassie Brilliant Blue as a loading control. […]
# At the conclusion of each experiment for matricellular and ECM protein detection, conditioned media (CM) from TM cell cultures was harvested and centrifuged at 5000 rpm for 10 minutes at 4° C. The supernatant was then concentrated (Amicon Ultra-4 Filter Unit, 10 kDa; Millipore, Milford, Mass.), and protein content quantified using the DC Protein Assay kit adhering to manufacturer's protocols (Bio-Rad, Hercules, Calif.). […] Samples were then centrifuged at 14,000 rpm for 15 minutes at 4° C. and protein content quantified. […]
smiles,measurement,setting,value
"NC(=O)c1ncn([C@@H]2O[C@H](CO)[C@@H](O)[C@H]2O)c1N [AICAR, 5-Aminoimidazole-4-carboxamide riboside]",cell morphology,"[1]; 0.5 mM AICAR, cultured TM cells (data not shown)",narrower cell bodies
same,F-actin staining and actin stress fiber formation,"[1]; AICAR, basal and TGF-β2 stimulatory conditions","decreased F-actin staining and actin stress fiber formation; also recorded: decreased F-actin cytoskeletal staining, and fewer actin stress fibers"
same,decrease in laminin (mean integrated band intensity),"laminin; 0.5 mM AICAR vs PBS vehicle, basal",64%
same,decrease in laminin level,"laminin; 0.5 mM AICAR, under TGF-β2 stimulation with 2.5 ng/mL",33%
